Results from ChEMBL document CHEMBL3352322, “Synthesis and biological evaluation of 3-phenethylazetidine derivatives as triple reuptake inhibitors” (Bioorg Med Chem Lett, 2014).

Tests used:
[1] = molecular target: T1, Sodium-dependent serotonin transporter (Homo sapiens, UniProt P31645); conditions: HEK293, at 0.1 µM
Target sequence in this assay (P31645 whole entry, looked up): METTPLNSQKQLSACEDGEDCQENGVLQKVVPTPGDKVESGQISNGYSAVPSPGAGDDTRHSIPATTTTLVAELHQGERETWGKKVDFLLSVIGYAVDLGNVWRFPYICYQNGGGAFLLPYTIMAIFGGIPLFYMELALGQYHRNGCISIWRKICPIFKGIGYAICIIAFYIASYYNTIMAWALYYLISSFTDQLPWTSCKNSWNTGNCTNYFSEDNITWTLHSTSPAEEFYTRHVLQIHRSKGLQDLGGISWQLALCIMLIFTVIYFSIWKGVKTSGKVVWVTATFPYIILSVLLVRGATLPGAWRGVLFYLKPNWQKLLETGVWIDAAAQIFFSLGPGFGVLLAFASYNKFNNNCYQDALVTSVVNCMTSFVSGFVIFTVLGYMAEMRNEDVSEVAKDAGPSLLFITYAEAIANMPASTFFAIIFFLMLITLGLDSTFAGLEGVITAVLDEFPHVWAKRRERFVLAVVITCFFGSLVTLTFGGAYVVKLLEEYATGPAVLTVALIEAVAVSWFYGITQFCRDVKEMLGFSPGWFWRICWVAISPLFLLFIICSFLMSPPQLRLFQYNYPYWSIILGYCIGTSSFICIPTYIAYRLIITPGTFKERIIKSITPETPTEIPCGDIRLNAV

[2] = molecular target: T1, Sodium-dependent serotonin transporter; conditions: HEK293, at 1 µM
Target sequence in this assay (P31645 whole entry, looked up): as above

[3] = molecular target: T1, Sodium-dependent serotonin transporter; conditions: HEK293, at 10 µM
Target sequence in this assay (P31645 whole entry, looked up): as above

[4] = molecular target: CYP2C19 (Homo sapiens, UniProt P33261); experiment: in vitro; conditions: recombinant CYP2C19
CYP2C19, sequence (P33261 whole entry): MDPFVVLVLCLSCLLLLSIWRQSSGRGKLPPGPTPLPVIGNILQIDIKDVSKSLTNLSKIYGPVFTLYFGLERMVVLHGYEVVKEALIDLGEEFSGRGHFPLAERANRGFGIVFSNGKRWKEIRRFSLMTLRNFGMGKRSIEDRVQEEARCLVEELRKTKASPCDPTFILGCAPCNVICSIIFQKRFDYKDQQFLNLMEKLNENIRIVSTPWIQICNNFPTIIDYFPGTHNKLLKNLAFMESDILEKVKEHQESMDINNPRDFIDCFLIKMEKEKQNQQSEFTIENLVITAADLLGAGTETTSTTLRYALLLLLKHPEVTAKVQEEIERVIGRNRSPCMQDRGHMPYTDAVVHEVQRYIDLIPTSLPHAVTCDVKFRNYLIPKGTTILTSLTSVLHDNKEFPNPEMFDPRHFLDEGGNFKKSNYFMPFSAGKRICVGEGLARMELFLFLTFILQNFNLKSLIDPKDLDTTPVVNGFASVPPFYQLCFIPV

[5] = molecular target: T2, Sodium-dependent noradrenaline transporter (Homo sapiens, UniProt P23975); experiment: Ratio of duloxetine IC50 to compound IC50 for norepinephrine reuptake at human NET expressed in HEK293 cells at 0.1 uM after 15 mins by fluorescence neurotransmitter transporter assay; assay type: cell-based
T2 sequence (P23975 whole entry): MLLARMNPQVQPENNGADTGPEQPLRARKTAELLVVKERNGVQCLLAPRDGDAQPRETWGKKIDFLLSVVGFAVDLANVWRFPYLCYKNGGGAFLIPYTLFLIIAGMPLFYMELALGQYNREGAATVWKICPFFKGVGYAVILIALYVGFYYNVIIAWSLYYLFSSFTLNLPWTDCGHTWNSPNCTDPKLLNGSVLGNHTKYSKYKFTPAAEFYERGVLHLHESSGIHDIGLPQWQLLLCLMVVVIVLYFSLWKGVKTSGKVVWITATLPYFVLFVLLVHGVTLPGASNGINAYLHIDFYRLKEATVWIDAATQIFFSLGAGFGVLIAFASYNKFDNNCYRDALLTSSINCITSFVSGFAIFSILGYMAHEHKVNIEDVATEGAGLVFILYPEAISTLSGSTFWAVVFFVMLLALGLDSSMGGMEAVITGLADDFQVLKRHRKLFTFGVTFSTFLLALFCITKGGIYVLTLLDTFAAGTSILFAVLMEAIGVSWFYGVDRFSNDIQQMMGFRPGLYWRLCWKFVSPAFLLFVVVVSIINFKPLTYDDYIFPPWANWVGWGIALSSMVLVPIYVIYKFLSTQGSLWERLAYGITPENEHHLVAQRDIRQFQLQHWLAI

[6] = molecular target: T2, Sodium-dependent noradrenaline transporter; experiment: Ratio of venlafaxine IC50 to compound IC50 for norepinephrine reuptake at human NET expressed in HEK293 cells at 0.1 uM after 15 mins by fluorescence neurotransmitter transporter assay; assay type: cell-based
[7] = molecular target: T1, Sodium-dependent serotonin transporter; experiment: Ratio of duloxetine IC50 to compound IC50 for serotonin reuptake at human SERT expressed in HEK293 cells at 0.1 uM after 15 mins by fluorescence neurotransmitter transporter assay; assay type: cell-based
Target sequence in this assay (P31645 whole entry, looked up): as the sequence (P31645 whole entry, looked up) above

[8] = molecular target: T1, Sodium-dependent serotonin transporter; experiment: Ratio of venlafaxine IC50 to compound IC50 for serotonin reuptake at human SERT expressed in HEK293 cells at 0.1 uM after 15 mins by fluorescence neurotransmitter transporter assay; assay type: cell-based
Target sequence in this assay (P31645 whole entry, looked up): as above

[9] = molecular target: T1, Sodium-dependent serotonin transporter; assay type: cell-based, HEK293
Target sequence in this assay (P31645 whole entry): as the sequence (P31645 whole entry, looked up) above

[10] = Stability in human liver microsomes assessed as compound remaining at 1 uM after 30 mins by LC/MS analysis; assay type: ADME; conditions: read-out: Stability
[11] = molecular target: T2, Sodium-dependent noradrenaline transporter
[12] = molecular target: Sodium-dependent dopamine transporter (Homo sapiens, UniProt Q01959)
Sodium-dependent dopamine transporter, sequence (Q01959 whole entry): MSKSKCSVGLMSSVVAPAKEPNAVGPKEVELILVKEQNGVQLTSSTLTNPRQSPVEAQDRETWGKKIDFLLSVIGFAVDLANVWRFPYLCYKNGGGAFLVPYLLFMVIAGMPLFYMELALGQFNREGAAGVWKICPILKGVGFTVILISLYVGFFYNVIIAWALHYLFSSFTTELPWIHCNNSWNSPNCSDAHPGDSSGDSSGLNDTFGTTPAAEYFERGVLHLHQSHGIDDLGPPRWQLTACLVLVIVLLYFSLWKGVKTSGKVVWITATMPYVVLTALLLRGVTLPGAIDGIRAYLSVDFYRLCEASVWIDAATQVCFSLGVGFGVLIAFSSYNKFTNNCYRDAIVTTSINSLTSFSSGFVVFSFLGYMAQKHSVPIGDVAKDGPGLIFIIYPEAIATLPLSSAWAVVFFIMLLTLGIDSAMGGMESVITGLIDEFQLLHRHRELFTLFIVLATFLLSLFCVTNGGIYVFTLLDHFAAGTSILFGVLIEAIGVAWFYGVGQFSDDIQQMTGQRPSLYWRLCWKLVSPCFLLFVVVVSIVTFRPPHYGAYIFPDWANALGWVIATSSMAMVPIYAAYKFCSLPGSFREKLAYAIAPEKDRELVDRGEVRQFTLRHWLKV

[13] = molecular target: T3, CYP1A2 (Homo sapiens, UniProt P05177); experiment: in vitro; conditions: recombinant CYP1A2
T3 sequence (P05177 whole entry): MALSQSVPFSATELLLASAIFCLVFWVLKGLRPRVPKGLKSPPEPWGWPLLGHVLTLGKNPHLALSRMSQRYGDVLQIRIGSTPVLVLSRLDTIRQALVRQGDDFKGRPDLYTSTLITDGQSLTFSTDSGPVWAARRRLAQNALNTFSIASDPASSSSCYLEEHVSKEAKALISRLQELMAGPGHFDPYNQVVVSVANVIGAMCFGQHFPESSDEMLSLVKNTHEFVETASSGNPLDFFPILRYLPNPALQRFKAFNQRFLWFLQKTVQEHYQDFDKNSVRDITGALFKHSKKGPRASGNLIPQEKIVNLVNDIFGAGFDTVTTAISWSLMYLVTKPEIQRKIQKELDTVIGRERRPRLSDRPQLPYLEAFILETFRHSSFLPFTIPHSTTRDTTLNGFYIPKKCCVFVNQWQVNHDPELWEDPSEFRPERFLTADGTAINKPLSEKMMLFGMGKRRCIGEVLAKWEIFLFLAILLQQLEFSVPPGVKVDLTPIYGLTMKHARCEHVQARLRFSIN

[14] = molecular target: CYP2D6 (Homo sapiens, UniProt P10635); experiment: in vitro; conditions: recombinant CYP2D6
CYP2D6, sequence (P10635 whole entry): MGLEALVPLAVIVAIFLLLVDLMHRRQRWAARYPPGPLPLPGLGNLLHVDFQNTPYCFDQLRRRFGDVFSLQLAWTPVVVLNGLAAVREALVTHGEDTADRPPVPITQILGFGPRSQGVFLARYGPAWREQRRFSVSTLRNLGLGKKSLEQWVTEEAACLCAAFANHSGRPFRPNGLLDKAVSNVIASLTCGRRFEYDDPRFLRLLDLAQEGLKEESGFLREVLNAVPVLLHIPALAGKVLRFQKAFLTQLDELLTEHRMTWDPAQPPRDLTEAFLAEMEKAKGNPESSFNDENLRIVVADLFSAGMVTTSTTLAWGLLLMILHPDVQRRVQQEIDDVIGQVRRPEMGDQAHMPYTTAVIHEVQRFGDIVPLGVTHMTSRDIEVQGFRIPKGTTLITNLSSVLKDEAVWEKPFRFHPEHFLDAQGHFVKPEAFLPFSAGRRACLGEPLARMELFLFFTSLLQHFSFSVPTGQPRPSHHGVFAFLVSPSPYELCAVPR

[15] = molecular target: CYP2C9 (Homo sapiens, UniProt P11712); experiment: in vitro; conditions: recombinant CYP2C9
CYP2C9, sequence (P11712 whole entry): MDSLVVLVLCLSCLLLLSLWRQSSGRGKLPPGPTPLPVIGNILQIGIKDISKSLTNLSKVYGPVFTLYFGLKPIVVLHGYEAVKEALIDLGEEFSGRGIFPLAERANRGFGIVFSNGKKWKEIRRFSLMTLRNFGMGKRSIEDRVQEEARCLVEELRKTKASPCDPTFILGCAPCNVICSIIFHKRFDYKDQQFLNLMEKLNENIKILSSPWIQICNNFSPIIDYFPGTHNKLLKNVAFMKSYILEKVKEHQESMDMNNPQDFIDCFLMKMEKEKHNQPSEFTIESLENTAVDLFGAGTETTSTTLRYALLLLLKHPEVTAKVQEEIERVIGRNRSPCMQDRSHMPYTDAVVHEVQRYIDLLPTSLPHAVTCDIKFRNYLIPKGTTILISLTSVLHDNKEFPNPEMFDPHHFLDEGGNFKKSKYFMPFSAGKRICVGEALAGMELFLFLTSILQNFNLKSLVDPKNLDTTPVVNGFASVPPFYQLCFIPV

[16] = molecular target: CYP3A4 (Homo sapiens, UniProt P08684); experiment: in vitro; conditions: recombinant CYP3A4
CYP3A4, sequence (P08684 whole entry): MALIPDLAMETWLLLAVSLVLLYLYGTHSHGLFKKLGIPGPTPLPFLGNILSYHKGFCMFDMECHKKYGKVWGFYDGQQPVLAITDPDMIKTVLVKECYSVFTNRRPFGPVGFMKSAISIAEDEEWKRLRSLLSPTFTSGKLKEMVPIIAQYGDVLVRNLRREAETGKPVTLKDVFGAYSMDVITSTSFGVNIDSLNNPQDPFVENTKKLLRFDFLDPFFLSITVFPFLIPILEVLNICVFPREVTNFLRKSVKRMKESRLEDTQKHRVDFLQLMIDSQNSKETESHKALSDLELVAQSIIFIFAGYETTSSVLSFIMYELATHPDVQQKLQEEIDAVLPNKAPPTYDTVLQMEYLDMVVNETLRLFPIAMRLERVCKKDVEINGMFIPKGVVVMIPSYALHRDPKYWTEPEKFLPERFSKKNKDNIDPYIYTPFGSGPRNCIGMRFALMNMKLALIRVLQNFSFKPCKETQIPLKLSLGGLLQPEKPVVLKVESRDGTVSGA

| SMILES | inhibition [1] [%] | inhibition [2] [%] | inhibition [3] [%] | further results |
| --- | --- | --- | --- | --- |
| Clc1ccc(COC(Cn2ccnc2)c2ccc(Cl)cc2Cl)c(Cl)c1 (configuration not stated) [MICONAZOLE] |  |  |  | inhibition at 10 µM [4]: 8.6% |
| Fc1ccc(OC(CC2CNC2)c2ccc(F)c(F)c2)cc1F (configuration not stated) | 63 |  |  |  |
| Cc1ccc(OC(CC2CNC2)c2ccc(F)c(F)c2)cc1 (configuration not stated) | 83 |  |  |  |
| c1ccc(OC(CC2CNC2)c2ccc3ccccc3c2)cc1 (configuration not stated) | 56 |  |  |  |
| CNCCC(Oc1ccccc1OC)c1ccccc1 (configuration not stated) |  | 43 | 85 |  |
| c1ccc(OC(CC2CNC2)c2ccccc2)cc1 (configuration not stated) | 66 |  |  |  |
| Fc1ccc(C(CC2CNC2)Oc2ccccc2)cc1F (configuration not stated) | 48 |  |  |  |
| Cc1cccc(OC(CC2CNC2)c2ccc(F)c(F)c2)c1 (configuration not stated) | 100 |  |  |  |
| O=c1cc(-c2ccccc2)oc2c1ccc1ccccc12 [ALPHA-NAPHTHOFLAVONE] |  |  |  | inhibition at 10 µM [13]: 5.4% |
| Fc1ccc(C(CC2CNC2)Oc2ccc(OC(F)(F)F)cc2)cc1F (configuration not stated) | 83 |  |  |  |
| Fc1ccc(OC(CC2CNC2)c2ccc(F)c(F)c2)cc1 (configuration not stated) | 55 |  |  |  |
| Cc1cccc(OC(CC2CNC2)c2ccc(Cl)c(F)c2)c1 (configuration not stated) | 100 | 100 | 100 | IC50 [9]: 23 nM; remaining at 0.5 h, 1 µM [10]: 36%; IC50 [11]: 14.7 nM; IC50 [12]: 80.4 nM; inhibition at 10 µM [13]: 58%; inhibition at 10 µM [14]: 12%; inhibition at 10 µM [15]: 6.8%; inhibition at 10 µM [16]: 12%; inhibition at 10 µM [4]: 5.5% |
| Fc1cccc(OC(CC2CNC2)c2ccc(F)c(F)c2)c1 (configuration not stated) | 94 |  |  |  |
| Fc1cc(C(CC2CNC2)Oc2ccc(Cl)cc2)ccc1Cl (configuration not stated) | 65 | 100 | 100 |  |
| FC(F)(F)Oc1ccc(OC(CC2CNC2)c2ccc(Cl)c(Cl)c2)cc1 (configuration not stated) | 16 | 98 | 100 |  |
| Fc1ccc(C(CC2CNC2)Oc2ccccc2OC(F)(F)F)cc1F (configuration not stated) | 19 |  |  |  |
| Fc1ccccc1OC(CC1CNC1)c1ccccc1 (configuration not stated) | 64 |  |  |  |
| Fc1ccc(C(CC2CNC2)Oc2cccc(Cl)c2)cc1F (configuration not stated) | 77 |  |  |  |
| Cc1ccc(OC(CC2CNC2)c2ccc(Cl)c(F)c2)cc1 (configuration not stated) | 97 | 100 | 100 | IC50 [9]: 38.5 nM; remaining at 0.5 h, 1 µM [10]: 59%; IC50 [11]: 33.1 nM; IC50 [12]: 110 nM; inhibition at 10 µM [13]: 44%; inhibition at 10 µM [14]: 10%; inhibition at 10 µM [15]: 19%; inhibition at 10 µM [16]: 13%; inhibition at 10 µM [4]: 7.6% |
| Fc1ccc(C(CC2CNC2)Oc2ccc(Cl)cc2)cc1F (configuration not stated) | 49 |  |  |  |
| COCC(=O)O[C@]1(CCN(C)CCCc2nc3ccccc3[nH]2)CCc2cc(F)ccc2[C@@H]1C(C)C [MIBEFRADIL] |  |  |  | remaining at 0.5 h, 1 µM [10]: 43% |
| Fc1ccc(C(CC2CNC2)Oc2cccc(OC(F)(F)F)c2)cc1F (configuration not stated) | 83 |  |  |  |
| Cc1ccccc1OC(CC1CNC1)c1ccc2ccccc2c1 (configuration not stated) | 48 |  |  |  |
| Cc1ccccc1OC(CC1CNC1)c1ccccc1 (configuration not stated) | 100 |  |  |  |
| Fc1cc(C(CC2CNC2)Oc2cccc(OC(F)(F)F)c2)ccc1Cl (configuration not stated) | 25 | 97 | 100 |  |
| Clc1ccc([C@]23CNC[C@H]2C3)cc1Cl [AMITIFADINE] |  |  |  | remaining at 0.5 h, 1 µM [10]: 67% |
| Fc1ccccc1OC(CC1CNC1)c1ccc(Cl)c(Cl)c1 (configuration not stated) | 59 | 100 | 100 | Ratio IC50 [5]: > 7; Ratio IC50 [6]: > 7; Ratio IC50 [7]: > 7; Ratio IC50 [8]: > 7; IC50 [9]: 73.8 nM; IC50 [11]: 33.5 nM; IC50 [12]: 53.6 nM |
| Fc1ccc(OC(CC2CNC2)c2ccc(Cl)c(Cl)c2)cc1 (configuration not stated) | 64 | 100 | 100 | Ratio IC50 [5]: > 7; Ratio IC50 [6]: > 7; Ratio IC50 [7]: > 7; Ratio IC50 [8]: > 7; IC50 [9]: 71.9 nM; IC50 [11]: 33.7 nM; IC50 [12]: 129 nM |
| Nc1ccc(S(=O)(=O)Nc2ccnn2-c2ccccc2)cc1 [SULFAPHENAZOLE] |  |  |  | inhibition at 10 µM [15]: 11.3% |

The next lines start with results.

| inhibition [1] [%] | inhibition [2] [%] | inhibition [3] [%] | SMILES | further results |
| --- | --- | --- | --- | --- |
| 21 | 88 | 100 | Clc1ccc(OC(CC2CNC2)c2ccc(Cl)c(Cl)c2)cc1Cl (configuration not stated) |  |
| 35 | 100 | 100 | Clc1cccc(OC(CC2CNC2)c2ccc(Cl)c(Cl)c2)c1 (configuration not stated) |  |
| 61 |  |  | Fc1ccc(C(CC2CNC2)Oc2ccccc2F)cc1F (configuration not stated) |  |
| 50 | 100 | 100 | Clc1ccc(C(CC2CNC2)Oc2ccccc2)cc1Cl (configuration not stated) | Ratio IC50 [5]: > 7; Ratio IC50 [6]: > 7; Ratio IC50 [7]: > 7; Ratio IC50 [8]: > 7; IC50 [9]: 83.4 nM; remaining at 0.5 h, 1 µM [10]: 67%; IC50 [11]: 37.2 nM; IC50 [12]: 52.1 nM |
| 93 |  |  | Cc1ccccc1OC(CC1CNC1)c1ccc(F)c(F)c1 (configuration not stated) |  |
| 48 | 100 | 100 | Fc1cc(C(CC2CNC2)Oc2ccccc2OC(F)(F)F)ccc1Cl (configuration not stated) |  |
| 26 | 100 | 100 | Fc1cccc(OC(CC2CNC2)c2ccc(Cl)c(Cl)c2)c1 (configuration not stated) |  |
| 59 | 100 | 100 | Cc1ccc(OC(CC2CNC2)c2ccc(Cl)c(Cl)c2)cc1 (configuration not stated) |  |
| 86 |  |  | Fc1ccc(C(CC2CNC2)Oc2ccccc2Cl)cc1F (configuration not stated) |  |
| 44 |  |  | Fc1ccc(C(CC2CNC2)Oc2ccc(Cl)c(Cl)c2)cc1F (configuration not stated) |  |
| 25 |  |  | Clc1ccccc1OC(CC1CNC1)c1ccc2ccccc2c1 (configuration not stated) |  |
| 100 |  |  | Clc1ccccc1OC(CC1CNC1)c1ccccc1 (configuration not stated) |  |
| 21 | 100 | 100 | Cc1cccc(OC(CC2CNC2)c2ccc(Cl)c(Cl)c2)c1 (configuration not stated) | remaining at 0.5 h, 1 µM [10]: 62% |
| 41 | 100 | 100 | Clc1ccc(OC(CC2CNC2)c2ccc(Cl)c(Cl)c2)cc1 (configuration not stated) |  |
| 82 | 100 | 100 | Fc1cc(C(CC2CNC2)Oc2ccccc2Cl)ccc1Cl (configuration not stated) | IC50 [9]: 37.5 nM; remaining at 0.5 h, 1 µM [10]: 89%; IC50 [11]: 30.8 nM; IC50 [12]: 164 nM; inhibition at 10 µM [13]: 76%; inhibition at 10 µM [14]: 12%; inhibition at 10 µM [15]: 18%; inhibition at 10 µM [16]: 13%; inhibition at 10 µM [4]: 7.4% |
| 80 | 100 | 100 | Fc1cc(C(CC2CNC2)Oc2ccccc2)ccc1Cl (configuration not stated) | IC50 [9]: 51.3 nM; remaining at 0.5 h, 1 µM [10]: 41%; IC50 [11]: 10.6 nM; IC50 [12]: 33.1 nM |
| 31 | 100 | 100 | Fc1ccc(OC(CC2CNC2)c2ccc(Cl)c(Cl)c2)cc1F (configuration not stated) |  |
| 9 | 77 | 100 | FC(F)(F)Oc1cccc(OC(CC2CNC2)c2ccc(Cl)c(Cl)c2)c1 (configuration not stated) |  |
| 40 | 100 | 100 | Clc1ccc(C(CC2CNC2)Oc2ccccc2Cl)cc1Cl (configuration not stated) |  |
| 16 | 93 | 100 | FC(F)(F)Oc1ccccc1OC(CC1CNC1)c1ccc(Cl)c(Cl)c1 (configuration not stated) |  |
| 25 | 100 | 100 | Cc1ccccc1OC(CC1CNC1)c1ccc(Cl)c(Cl)c1 (configuration not stated) | remaining at 0.5 h, 1 µM [10]: 89% |
| 94 | 100 | 100 | Cc1ccccc1OC(CC1CNC1)c1ccc(Cl)c(F)c1 (configuration not stated) | IC50 [9]: 37.7 nM; remaining at 0.5 h, 1 µM [10]: 59%; IC50 [11]: 68.6 nM; IC50 [12]: 162 nM; inhibition at 10 µM [13]: 55%; inhibition at 10 µM [14]: 15%; inhibition at 10 µM [15]: 32%; inhibition at 10 µM [16]: 16%; inhibition at 10 µM [4]: 14% |
